# Article PMC4610172, “5-Arylaminouracil Derivatives as Potential Dual-Action Agents” (Acta Naturae, 2015)
# Test system: MT-4 cell line
# Test: Cytotoxicity in vitro in MT-4 cells (propidium iodide uptake, automatic cell counter)
# Assay type: cell-based
# Conditions: highest concentration tested
# Description: We tested the compounds for potential cytotoxicity in the MT-4 cell line using an automatic cell counter (ChemoMetec). The number of live and dead cells was counted in the control cultures, and the cultures were treated with compound (6), (7), or (19). Compounds (6) and (7) were tested at concentrations of 0.136–33 μM (0.035–9 μg/mL), and compound (19) was tested at concentrations of 0.272–66 μM (0.119–28 μg/mL).
# We discriminated live from dead cells by evaluating propidium iodide uptake according to the manufacturer’s instructions. We collected and analyzed data using the Nucleoview software (version 1.0,ChemoMetec).
row,Structure (SMILES),Maximum concentration at which neither cytotoxic nor cytostatic effect was observed [µM]
1,CCCCc1ccc(Nc2c[nH]c(=O)[nH]c2=O)cc1 [Compound 6],≥ 33
2,CCCCOc1ccc(Nc2cn(C3C=CC(O)C3)c(=O)n(C3C=CC(O)C3)c2=O)cc1 (stereo not drawn) [Compound 19],≥ 66
3,CCCCOc1ccc(Nc2c[nH]c(=O)[nH]c2=O)cc1 [Compound 7],≥ 33

# Molecular target: T1, HIV-1 reverse transcriptase (p66/p51 heterodimer) (Human immunodeficiency virus type 1 group M subtype B, UniProt P04585)
# T1 construct: recombinant HIV-1 reverse transcriptase (p66/p51 heterodimer); made in house
# Test: Inhibition of recombinant HIV-1 reverse transcriptase (Dixon's method, noncompetitive)
# Assay type: biochemical
# Conditions: Dixon's method for noncompetitive inhibitors; read-out: Ki (inhibition constant)
# Description: Isolation of recombinant HIV-1 reverse transcriptase (p66/p51 heterodimer) and determination of its activity were performed as described earlier. The inhibition constant (Ki), calculated according to Dixon’s method for noncompetitive inhibitors, was used as a quantitative measure of the inhibitory activity of the compounds. Nevirapine, a first-generation HIV NNRTI, was used as a control.
row,Structure (SMILES),Ki [µM]
1,O=c1[nH]c(=O)n(C2C=CC(O)C2)cc1Nc1ccc(Oc2ccccc2)cc1 (stereo not drawn) [Compound 15],119
2,"O=c1c(Nc2ccccc2)cn(C2C=CC(O)C2)c(=O)n1Cc1ccccc1 (stereo not drawn) [Compound 21, 1-(4’-Hydroxy-2’-cyclopenten-1’-yl)-3-benzyl-5-(phenylamino) uracil]",> 100
3,"Cc1ccc(Nc2cn(C3C=CC(O)C3)c(=O)n(Cc3ccccc3)c2=O)cc1 (stereo not drawn) [Compound 22, 1-(4’-Hydroxy-2’-cyclopenten-1’-yl)-3-benzyl-5-(p-methylphenylamino) uracil]",60

# Test system: Mycobacterium tuberculosis
# Test: not given
# Design: method as in PMID 26061192
# Conditions: cited from earlier work
row,Structure (SMILES),Concentration of total inhibition of mycobacterium growth [µg/mL]
1,CCCCc1ccc(Nc2n[nH]c(=O)[nH]c2=O)cc1 [Compound 10],5 to 40
2,Cc1cccc(Nc2c[nH]c(=O)[nH]c2=O)c1 [Compound 2],5 to 40
3,CCCCc1ccc(Nc2c[nH]c(=O)[nH]c2=O)cc1 [Compound 6],5 to 40
4,CCCCOc1ccc(Nc2cn(C3C=CC(O)C3)c(=O)n(C3C=CC(O)C3)c2=O)cc1 (stereo not drawn) [Compound 19],5 to 40
5,Cc1ccc(Nc2c[nH]c(=O)[nH]c2=O)cc1 [Compound 3],5 to 40
6,CCCCOc1ccc(Nc2c[nH]c(=O)[nH]c2=O)cc1 [Compound 7],5 to 40

# Test system: human tonsillar tissue
# Test: Toxicity ex vivo in human tonsillar tissue (flow cytometry of cell phenotypes)
# Assay type: cell-based
# Conditions: 5 μg/mL, 12 days culture
# Description: The cytotoxicity of compounds (6), (7), and (19) was determined in human tonsillar tissues. A total of 27 tissue blocks were incubated with compound (19) (20 μg/mL) or with compound (6) or (7) ( 5 μg/mL) for each experimental point. Tissue blocks were cultured for 12 days. Then, the cells were isolated from the control and treated and stained with combinations of fluorescence- labeled antibodies against CD3-QD605, CD4- QD655, CD8-QD705, CD25-APC, CD38-PE, HLA-DRAPC- Cy7, CXCR4-Brilliant violet 421, CCR5-PR-Cy5 CD45RA-FITC, and CCR7-PE-Cy7 (Caltag Laboratories; Biolegend). We determined the numbers of cells of different phenotypes in isolated suspensions using flow cytometry as previously described. The volume of an analyzed suspension was controlled by means of Trucount beads (Becton Dickinson); the number of counted cells was normalized to the weight of the tissue fragments used for cell isolation.
row,Structure (SMILES),"Cytotoxicity on different cell types in the tissue (T, B, CD4+, CD8+ and CD4+ subgroups)"
1,CCCCc1ccc(Nc2c[nH]c(=O)[nH]c2=O)cc1 [Compound 6],lack of significant death rates
2,CCCCOc1ccc(Nc2c[nH]c(=O)[nH]c2=O)cc1 [Compound 7],lack of significant death rates

# Same assay, conditions: 20 μg/mL, 12 days culture
row,Structure (SMILES),"Cytotoxicity on different cell types in the tissue (T, B, CD4+, CD8+ and CD4+ subgroups)"
1,CCCCOc1ccc(Nc2cn(C3C=CC(O)C3)c(=O)n(C3C=CC(O)C3)c2=O)cc1 (stereo not drawn) [Compound 19],lack of significant death rates
